Key:
Type in all cases: cell-based
[1] = system: Colony Forming Unit—Megakaryocyte (CFU-Mk); assay: Colony forming unit (CFU) assay, human bone marrow cells; conditions: for effect of receptor antagonist on substance P-enhanced platelet colony formation: antagonist in the presence of substance P
Text: (§1) This study examined the formation of three different progenitor cell populations, erythrocytes, platelets and granulocytes/macrophages.
(§2) Bone marrow aspirates were obtained from three healthy donors between 18 and 35 years of age following appropriate guidelines and protocols. Bone marrow mononuclear cells were isolated using a Ficoll-Hypaque density gradient, separating red blood cells from the others. Cells from each donor were processed independently and used for setting up individual experiments to assess the effects, if any, of donor variability.
(§3) Cells (1×10^5) were plated in duplicate onto 35 mm tissue culture plates for each condition tested and set up as described in Rameshwar et al. 1993, Blood. 81:2, 391-398. Erythroid and granulocyte/macrophage cultures were plated using methylcellulose and megakaryocyte cultures (platelet precursors) used a collagen-based support (StemCell Technologies, Vancouver, Canada, catalogue #04973). […] CP 99,994 (Pfizer) was used as a neurokinin-1 receptor antagonist and SR 48968 (Sanofi) was used as a neurokinin-2 receptor antagonist.
Cultures were set up with limited cytokines and growth factors which would promote differentiation of one progenitor per plate.
Each compound was dissolved in endotoxin-free water to a final concentration of 0.1 mM. After reconstitution, the solutions were aliquoted into siliconized microcentrifuge tubes and exposed to nitrogen gas, eliminating oxygen in the head space of the enclosure. All aliquots were stored at −20° C. until use and used within one month of reconstitution. See, Rameshwar, et al. 1997, J. Immunol.
Cultures were incubated at 37° C. with 5% CO2 for approximately 14 days, after which colonies were manually enumerated using a microscope. To count megakaryocyte colonies, the cells were fixed followed by a staining procedure using the following antibodies: primary—mouse anti-human GP11b/111a, isotype control—mouse anti-trinitrophenyl, secondary—biotin-conjugated goat anti-mouse IgG, detection—avidin-alkaline phosphatase conjugate. […]

[2] = system: human bone marrow mononuclear cell (MNC) fraction; assay: CFC assay, multi-donor study, all seven cell populations (overall toxicity); conditions: three donors, highest doses (up to 1 nM)
Experimental: Compound was dissolved in 1 ml of Iscove's Modified Dulbecco's Medium (IMDM) and a serial dose response was prepared in single log doses so that the final dose in culture ranged from 1 nanoMolar (nM) to 1×10^−16 M. All working dilutions were performed in IMDM. Cell cultures from each donor were started at different times and a fresh solution of Homspera® was prepared for each individual experiment.
Starting with human bone marrow aspirate, the mononuclear cell (MNC) fraction from each aspirate was separated from whole bone marrow using Ficoll-Paque density gradient centrifugation.
The colony-forming cell (CFC) assay was performed using optimal growth factor/cytokine concentrations. The reagents and conditions were similar to those used in Example 3, except that no ATP measurements were performed. The MNC fraction from each bone marrow donor was dissolved in IMDM and cultured at a concentration of 5,000 cells/well in a Culture Master Mix (HemoGenix, Inc., Colorado Springs, Colo.). […]
The mean, standard deviation and percent coefficient of variation was calculated for all groups, transposed and plotted as a function of donor. The percent from control values were calculated and also plotted as a function of donor. […]

[3] = system: Colony Forming Unit—Erythroid (CFU-E); assay: Colony forming unit (CFU) assay, human bone marrow cells; conditions: about 14 days; FIG. 2
Text: as §1, §2, §3
(§4) The cytokines and growth factors added to Blast Forming Unit—Erythroid (BFU-E) cultures, Colony Forming Unit—Erythroid (CFU-E) cultures, and Colony Forming Unit—Granulocyte/Macrophage (CFU-GM) cultures were added as defined by proliferative units. […]

[4] = system: Blast Forming Unit—Erythroid (BFU-E); assay: as above; conditions: about 14 days; three donors; FIG. 1
Text: as §1, §2, §3, §4

COc1ccccc1CN[C@H]1CCCN[C@H]1c1ccccc1 [CP-99,994]
effect of receptor antagonist on substance P-enhanced platelet colony formation [1]: blocks the stimulatory activity of substance P

CC(C)C[C@H](NC(=O)CN(C)C(=O)[C@H](Cc1ccccc1)NC(=O)[C@H](Cc1ccccc1)NC(=O)[C@H](CCC(N)=O)NC(=O)[C@H](CCC(N)=O)NC(=O)[C@@H]1CCCN1C(=O)[C@H](CCCCN)NC(=O)[C@@H]1CCCN1C(=O)[C@@H](N)CCCNC(=N)N)C(=O)N[C@@H](CCS(C)(=O)=O)C(N)=O [Homspera®, [Sar^9, Met(O)2^11]-substance P]
toxicity [2]: no apparent toxicity

CC(=O)NC1(c2ccccc2)CCN(CC[C@H](CN(C)C(=O)c2ccccc2)c2ccc(Cl)c(Cl)c2)CC1 [SR48968]
effect of receptor antagonist on substance P-enhanced platelet colony formation [1]: no effect on substance P activity

Arg Pro Lys Pro Gln Gln Phe Phe Gly Leu Met [substance P]
CFU-E colony formation, enhancement from control values [3]: about 70% | BFU-E colony formation, increase from control values [4]: ~60% | concentration at which effective on platelet precursors [1]: 10^−8 M
